From patent publication US20210174908A1, “CLASSIFICATION OF TUMOR MICROENVIRONMENTS” (Oncxerna Therapeutics, Inc., priority 2019, published 2021)

Assays:
[1] = test system: patients with gastric cancer; test: Retrospective population-based TME classification of gastric cancer patients who received pembrolizumab (n = 45), RECIST response; assay type: in vivo, human; details: for Class response rate: population-based classifier
Text: The analysis included 45 gastric cancer tumor samples.
The ORR for all patients was 27% (12/45). […] When the patients were retrospectively analyzed and placed in the Class IA, the response rate was 80%; and in Class IS, the response rate was 18%.

gastric cancer = test: ANN classifier applied to pembrolizumab monotherapy gastric cancer data, threshold / probability score optimization; assay type: in vivo, human
Text: Sensitivity refers to the number of true biomarker responders divided by number of actual responders; specificity refers to the number of true biomarker non-responders divided by number of actual non-responders; PPV refers to the number of true biomarker responders divided by number of total predicted biomarker responders (how well the biomarker-positive rating performs); and NPV—refers to the number of true biomarker non-responders divided by number of total predicted biomarker non-responders (how well the biomarker-negative rating performs).

MDSC = details: pre-clinical models; cited from earlier work
solid tumors = test: Navicixizumab Phase 1A dose-escalation trial, retrospective Z-score and ANN biomarker analysis (n = 39); assay type: in vivo, human; details: for Patients with benefit (SD or better): gynecological cancers
Description: A retrospective data analysis of a Phase 1A dose-escalation trial for patients with solid tumors. […] Patients with the above cancers had biopsies collected. Exploratory predictive biomarkers such as DLL4 and VEGF were measured in FFPE tumor specimens, either archived or fresh core needle biopsied at study entry (2 FFPE cores were preferred whenever possible) by immunohistochemistry. […] In the biomarker-positive subset, 48% achieved SD or better.
Model performance is tabulated in TABLE 40; and abbreviations and definitions are as follows; ACC is accuracy; AUC ROC is area under the receiving operator characteristic curve; Sensitivity is the number of true biomarker responders divided by number of actual responders; Specificity is the number of true biomarker non-responders divided by number of actual non-responders; PPV is positive predictive value, i.e., number of true biomarker responders divided by number of total predicted biomarker responders; NPV is negative predictive value, i.e., number of true biomarker non-responders divided by number of total predicted biomarker non-responders.

[2] = test system: HER2 negative metastatic breast cancer, NSCLC, hepatocellular carcinoma; details: with paclitaxel (HER2 negative metastatic breast cancer), paclitaxel-carboplatin (advanced NSCLC), sorafenib (hepatocellular carcinoma), docetaxel (non-squamous NSCLC); cited from earlier work

Pembrolizumab
ORR (CR + PR) or class response rate ([1]; All (ORR), n = 45): 12/45 (27%) | CR ([1]; All, n = 45, patients/total): 3/45 | PD ([1]; All, n = 45, patients/total): 18/45 | PR ([1]; All, n = 45, patients/total): 9/45 | Class response rate ([1]; Class A): 0% | Class response rate ([1]; Class IA, CR+PR in class / patients in class): 80% | Class response rate ([1]; Class ID): 12% | Class response rate ([1]; Class IS): 18% | Overall Response Rate (ORR) ([1]; all patients, n = 45, CR+PR divided by total number of patients (RECIST)): 27% | ORR (CR + PR) or class response rate ([1]; class A): 0/8 (0%) | CR ([1]; class A, patients/class): 0/8 | PD ([1]; class A, patients/class): 3/8 | PR ([1]; class A, patients/class): 0/8 | ORR (CR + PR) or class response rate ([1]; class IA): 8/10 (80%) | CR ([1]; class IA, patients/class): 2/10 | PD ([1]; class IA, patients/class): 2/10 | PR ([1]; class IA, patients/class): 6/10 | ORR (CR + PR) or class response rate ([1]; class ID): 2/16 (12%) | CR ([1]; class ID, patients/class): 0/16 | PD ([1]; class ID, patients/class): 7/16 | PR ([1]; class ID, patients/class): 2/16 | ORR (CR + PR) or class response rate ([1]; class IS): 2/11 (18%) | CR ([1]; class IS, patients/class): 1/11 | PD ([1]; class IS, patients/class): 6/11 | PR ([1]; class IS, patients/class): 1/11 | Biomarker positive Overall Response Rate (ORR) (gastric cancer; Option 1: optimized threshold, both IS and IA groups (10/14)): 70% | Biomarker-positive ORR (gastric cancer; Option 2: optimized threshold, only the IA subgroup (8/8)): 100% | Biomarker positive Overall Response Rate (ORR) (gastric cancer; before threshold optimization): 80%

CCCc1nn(C)c2c(=O)[nH]c(-c3cc(S(=O)(=O)N4CCN(C)CC4)ccc3OCC)nc12 [sildenafil]
Effect on MDSC functions (MDSC): significantly inhibited the MDSC functions

B1: Navicixizumab (antibody, chains of the INN, looked up, V domains shown)
VH: QVQLVQSGAEVKKPGASVKISCKASGYSFTAYYIHWVKQAPGQGLEWIGYISNYNRATNYNQKFKGRVTFTTDTSTSTAYMELRSLRSDDTAVYYCARDYDYDVGMDYWGQGTLVTVSS
VL: DIVMTQSPDSLAVSLGERATISCRASESVDNYGISFMKWFQQKPGQPPKLLIYAASNQGSGVPDRFSGSGSGTDFTLTISSLQAEDVAVYYCQQSKEVPWTFGGGTKVEIK
VH2: QVQLVQSGAEVKKPGASVKVSCKASGYTFTNYWMHWVRQAPGQGLEWMGDINPSNGRTSYKEKFKRRVTLSVDKSSSTAYMELSSLRSEDTAVYFCTIHYDDKYYPLMDYWGQGTLVTVSS
VL2: DIVMTQSPDSLAVSLGERATISCRASESVDNYGISFMKWFQQKPGQPPKLLIYAASNQGSGVPDRFSGSGSGTDFTLTISSLQAEDVAVYYCQQSKEVPWTFGGGTKVEIK
notes: anti-VEGF/anti-DLL4 bispecific antibody
Patients achieving SD (Stable Disease) or better (RECIST 1.1) (solid tumors; all-comers biomarker subset, n = 39): 38% | Patients achieving SD or better (solid tumors; biomarker-positive subset): 48% | Patients with benefit (SD or better) (solid tumors; biomarker-negative (n=6)): 0% | Patients with benefit (SD or better) (solid tumors; biomarker-positive (n=12)): 58%

B2: Bavituximab (antibody, V domains shown)
VH: EVQLQQSGPELEKPGASVKLSCKASGYSFTGYNMNWVKQSHGKSLEWIGHIDPYYGDTSYNQKFRGKATLTVDKSSSTAYMQLKSLTSEDSAVYYCVKGGYYGHWYFDVWGAGTTVTVSS
VL: DIQMTQSPSSLSASLGERVSLTCRASQDIGSSLNWLQQGPDGTIKRLIYATSSLDSGVPKRFSGSRSGSDYSLTISSLESEDFVDYYCLQYVSSPPTFGAGTKLELK
notes: PS-targeting antibody
Anti-tumor effects in clinical trials [2]: Promising anti-tumor effects
